In a melting point compilation (Tetko et al.):

| SMILES | melting point [°C] |
| --- | --- |
| CC(C)(CCCC(C)(C)C(=O)O)C(=O)O | 169 to 171 |
| Cc1cc2cc3c(C)cc(=O)oc3c(C)c2o1 | 230 to 234 |
| N#Cc1ccc(N)c(C(F)(F)F)c1 | 62 |
| NC(=O)c1ccc(F)cc1F | 161 |
| Cc1ccc(-c2csc3nc(C(F)(F)F)cc(=O)n23)cc1 | 186 |
| O=C1Cc2ccccc21 | 14 |
| COc1cc2c(cc1OC)C(c1ccccc1[N+](=O)[O-])N(C(C)=O)CC2 (stereo unspecified) | 132 to 134 |
| S=C=Nc1ccc2c(c1)OCCO2 | 64 to 66 |
| O=S(=O)(Cl)c1cc(Br)c(Cl)s1 | 63 to 65 |
| Cc1c([N+](=O)[O-])cc(C(=O)O)cc1[N+](=O)[O-] | 155 to 159 |
| C=CC(=O)Oc1c(Br)cc(Cl)c2cccnc12 | 100 |
| CC1OC(O)C(O)C(O)C1O (stereo unspecified) | 144 to 145 |
| O=P(O)(O)OCC(O)CO (stereo unspecified) | -25 |
| NNC(=O)CSC1CS(=O)(=O)c2cc([N+](=O)[O-])ccc21 (stereo unspecified) | 181 to 182 |
| CC(=O)SC1CC2=CC(=O)CCC2(C)C2CCC3(C)C(CCC34CCC(=O)O4)C12 (stereo unspecified) | 208 |
| CC(=O)c1cc[nH]c1 | 112 to 114 |
| CCOCOC(=O)c1ccccc1Nc1c(Cl)ccc(C)c1Cl | 73.5 |
| Cc1cccc2c1C/C2=N/Nc1ccc([N+](=O)[O-])cc1[N+](=O)[O-] | 227 |
| O=Cc1scc2c1OCCO2 | 138 to 140 |
| Cn1c(/C(C#N)=N/Nc2ccc(Cl)cc2)nc2ccccc21 | 215 |
| Cc1ccc(C(c2ccc(C)o2)c2cc(I)cc(I)c2O)o1 | 143 |
| Cc1cc(Br)c(O)c2c1CCC2 | 60 to 62 |
| CC[C@H](CO)N1Cc2ccccc2C1 | 56 to 61 |

| SMILES | melting point [°C] |
| --- | --- |
| CC(=O)C1CCC2C3CCC4CC(N)CCC4(C)C3CCC12C (stereo unspecified) | 126 |
| COc1c(OC)c(OC(C)=O)c2cc(Cl)ccc2c1OC(C)=O | 91.5 |
| COc1cc(O)c2c(=O)c(O)c(-c3ccc(O)c(O)c3)oc2c1 | 295 |
| Cc1ccc(C(=O)C=Cc2ccc(F)cc2)cc1 | 119 to 121 |
| CCN(CC)CCC#N | -64 |
| Cc1nc(-c2ccccc2)no1 | 35 |
| O=C(c1ccncc1)N1N=C(c2ccccc2)CC1c1cn(-c2ccccc2)nc1-c1ccccc1 (stereo unspecified) | 224 to 226 |
| CC(C)CSCC(C)C | -106 |
| NCCC(=O)N[C@@H](Cc1c[nH]cn1)C(=O)O | 260 |
| O=c1[nH]c2ccc(Cl)cc2o1 | 192 to 193 |
| Cc1ccc(N)c(O)c1 | 157 |
| N#Cc1c(N2CCCC2)nc(N)c2c(-c3ccccc3)cc(-c3ccccc3)nc12 | 236 |
| N#CCc1c(Cl)cccc1Cl | 76 |
| O=[N+]([O-])c1cccc(NN=Cc2ccccc2)c1 | 196 |
| COc1ccc(C(=S)Nc2ccccc2)cc1 | 157 |
| CCOCC1C(=O)C2(C)CCC1C2(C)C (stereo unspecified) | 114 |
| CCP(=S)(CC)CC | 95 |
| CC(C)OC(=O)C1(S(=O)(=O)c2ccc([N+](=O)[O-])cc2)CCCCCC1 | 83.5 |
| CC(=O)/C(=C\N)c1ccccc1 | 97 |
| Nc1cc(Cl)c([N+](=O)[O-])cc1Cl | 155 |
| CC(C)(c1ccccc1)C(C)(C)c1ccccc1 | 90 to 110 |
| CCc1ccc(CCOc2ccc(CC3SC(=O)NC3=O)cc2)nc1 (stereo unspecified) | 184 |
| COC(=O)c1cccc(C(=O)O)c1N | 160 to 167 |

| SMILES | melting point [°C] |
| --- | --- |
| CCCCCCCCCCCCCCCCOC(=O)C(C)O (stereo unspecified) | 41 |
| COc1cc2nc(N3CCN(C(=O)c4ccco4)CC3)nc(N)c2cc1OC | 285 |
| Cn1nc(C(=O)O)cc1-c1cccs1 | 156 to 158 |
| Clc1cc2oc3c(Cl)c(Cl)ccc3c2c(Cl)c1Cl | 206 |
| BrCCc1ccccc1 | -56 |
| N[C@@H](c1ccccc1)c1c(O)ccc2ccccc12 | 133 to 137 |
| O=CNCC(=O)O | 149 |
| OCC1CC1 | -60 |
| O=[N+]([O-])c1ccc(-n2cc([N+](=O)[O-])c(-c3ccccc3)n2)cc1 | 230 to 232 |
| Cc1ccc(C=Nc2n[nH]c(N=Cc3ccc(C)cc3)c2Cc2ccc(Cl)cc2)cc1 | 248 to 250 |
| O=C(c1nn2c(nc(=O)c3ccccc32)s1)c1cccc2ccccc12 | 241 |
| Cn1c(=O)c(C2=NNC(=O)C2=NNc2ncccn2)c(O)c2ccccc21 | 302 |
| c1ccc(Nc2nc(N3CCOCC3)nc(N3CCOCC3)n2)cc1 | 173 |
| C=CCC1(O)CCC2C3CCC4=CCCCC4C3CCC21C (stereo unspecified) | 80 |
| O=C(Cl)c1cc(I)ccc1F | 29 |
| O=C(CSc1nc(=O)[nH]c2c1CCCC2)c1ccccc1 | 250 to 255 |
| C1CSCS1 | -50 |
| Nc1ccc(CCc2ccc(N)cc2)cc1 | 137 |
| CCN1CN(CC)CN(CC)C1 | 70 |
| O=C(O)c1cc2cccnc2s1 | 293 to 294 |
| Cc1cc(Cl)cc([N+](=O)[O-])c1 | 61 |
| O=Cc1cccc(C(F)(F)F)c1Cl | 44 |
| CC(C)[C@@H](NC(=O)OC(C)(C)C)C(=O)O | 164 to 165 |

| SMILES | melting point [°C] |
| --- | --- |
| Nc1ccc(Br)nn1 | 194 |
| CCCC(CC)C1(CC)C(=O)NC(=O)NC1=O (stereo unspecified) | 122 |
| N#CC(C#N)=C(CC=O)c1ccc(Cl)cc1 | 100 |
| CCSCC[C@@H](N)C(=O)O | 278 |
| CN(C)c1ccc(/C=C(\C(N)=O)c2nc3ccccc3s2)cc1 | 210 |
| O=C(CCC1=NC=NC1)NCCc1c[nH]cn1 | 164 |
| O=C(O)c1ccc2cc(C(=O)O)ccc2c1 | 300 |
| CCCN(CCC)S(=O)(=O)c1ccc(C(=O)O)cc1 | 198 |
| CCCCNC(=O)OCC(C)(CCC)COC(N)=O (stereo unspecified) | 50 |
| O=C(O)C=Cc1ccc(OC(F)(F)F)cc1 | 178 to 179 |
| Clc1ccc(NC2=NCCN2)cc1 | 147 to 148 |
| CCOC(=O)C1C(=N)Oc2c(c(=O)oc3ccccc23)C1c1ccc(Br)cc1 (stereo unspecified) | 192 |
| NC(=O)c1ccc(F)c(C(F)(F)F)c1 | 84.5 |
| COc1c2ccoc2cc2oc(C)cc(=O)c12 | 144 |
| CC(C)OC(=O)C(C)N(C(=O)c1ccccc1)c1ccc(F)c(Cl)c1 (stereo unspecified) | 84 |
| CCOC(=O)c1c(SC)n[nH]c1N | 142 to 143 |
| CC(C)(C)OC(=O)NC(Cc1ccccc1)C(=O)NN (stereo unspecified) | 131 to 136 |
| CC(C)(C)NC(=O)C1CCC2CC34CCC(CC=C3C=C(O)C=O)C4CCC21C (stereo unspecified) | 257 |
| CC(=CNNc1nc(C)cc(C)n1)c1cccnc1 | 147 to 150 |
| O=C(Cl)c1ccc(CCl)cc1 | 29 to 33 |
| O=c1c(O)c(-c2ccc(O)c(O)c2)oc2cc(O)ccc12 | 330 |
| CSc1nc2cc(NCc3ccccc3Cl)ccc2[nH]1 | 207 to 209 |
